ChEMBL document CHEMBL4354839, “Heterobifunctional Molecules Induce Dephosphorylation of Kinases-A Proof of Concept Study” (J Med Chem, 2020)
Values belong to the molecule of their own block, whether it stands above or below them. The source made the active and inactive calls. The rule behind the calls is not given here. Residues, ends and D or L forms follow the SMILES beside them. *: point of attachment. X1 = O=C(C*)NCCOCCOCC(=O)Nc1ccc2[nH]c(=O)n(C3CCN(Cc4ccc(-c5nc6cc[nH]c(=O)c6cc5-c5ccccc5)cc4)CC3)c2c1

What was measured:
[1] = molecular target: T1, AKT1/PPP1CA (Homo sapiens) (UniProt P62136+P31749); test: Induction of PPI-mediated AKT dephosphorylation in human LnCaP cells assessed as reduction in S6 phosphorylation at 10 uM incubated for 8 hrs by Western blot analysis; format: cell-based
[2] = molecular target: T1, AKT1/PPP1CA (Homo sapiens); test: Induction of PPI-mediated AKT dephosphorylation in human PC3 cells assessed as increase in AKT T308 dephosphorylation at 10 uM incubated for 8 hrs by Western blot analysis; format: cell-based
[3] = molecular target: T1, AKT1/PPP1CA (Homo sapiens); test: Induction of PPI-mediated AKT dephosphorylation in human PC3 cells assessed as increase in AKT S473 dephosphorylation at 10 uM incubated for 8 hrs by Western blot analysis; format: cell-based
[4] = molecular target: T1, AKT1/PPP1CA (Homo sapiens); test: Induction of PPI-mediated AKT dephosphorylation in human LnCaP cells assessed as increase in AKT T308 dephosphorylation at 10 uM incubated for 6 and 8 hrs by Western blot analysis; format: cell-based
[5] = molecular target: T1, AKT1/PPP1CA (Homo sapiens); test: Induction of PPI-mediated AKT dephosphorylation in human LnCaP cells assessed as increase in AKT S473 dephosphorylation at 10 uM incubated for 8 hrs by Western blot analysis; format: cell-based
[6] = molecular target: T1, AKT1/PPP1CA (Homo sapiens); test: Induction of PPI-mediated AKT dephosphorylation in human LnCaP cells assessed as increase in AKT T308 dephosphorylation at 10 uM incubated for 8 hrs in presence of PPI siRNA by Western blot analysis; format: cell-based
[7] = molecular target: T1, AKT1/PPP1CA (Homo sapiens); test: Induction of PPI-mediated AKT dephosphorylation in human MCF7/neo HER2 cells assessed as increase in AKT T308dephosphorylation at 10 uM incubated for 8 hrs by Western blot analysis; format: cell-based
[8] = molecular target: T1, AKT1/PPP1CA (Homo sapiens); test: Induction of PPI-mediated AKT dephosphorylation in human MCF7/neo HER2 cells assessed as increase in AKT […] dephosphorylation at 10 uM incubated for 8 hrs by Western blot analysis; format: cell-based
[9] = molecular target: T1, AKT1/PPP1CA (Homo sapiens); test: Induction of PPI-mediated AKT dephosphorylation in human LnCaP cells assessed as increase in AKT T308 dephosphorylation at 10 uM incubated for 8 hrs by Western blot analysis; format: cell-based
[10] = molecular target: T1, AKT1/PPP1CA (Homo sapiens); test: Induction of PPI-mediated AKT dephosphorylation in human LnCaP cells transfected with human Halo/FLAG-tagged PP1CA at 10 uM incubated for 8 hrs by Western blot analysis; format: cell-based
[11] = molecular target: T1, AKT1/PPP1CA (Homo sapiens); test: Induction of PPI-mediated AKT dephosphorylation in human PC3 cells transfected with human Halo/FLAG-tagged PP1CA at 10 uM incubated for 8 hrs by Western blot analysis; format: cell-based
[12] = molecular target: T1, AKT1/PPP1CA (Homo sapiens); test: Induction of PPI-mediated AKT dephosphorylation in human MCF7/neo HER2 cells transfected with human Halo/FLAG-tagged PP1CA at 10 uM incubated for 8 hrs by Western blot analysis; format: cell-based
[13] = molecular target: T1, AKT1/PPP1CA (Homo sapiens); test: Induction of PPI-mediated AKT dephosphorylation in human LnCaP cells at 0.1 to 10 uM incubated for 2 hrs by Western blot analysis; format: cell-based
[14] = molecular target: T1, AKT1/PPP1CA (Homo sapiens); test: Induction of PPI (unknown origin)-mediated pAKT (T308) (unknown origin) dephosphorylation at 0.25 to 10 uM incubated for 1 hr by Western blot analysis; format: protein assay
[15] = molecular target: T1, AKT1/PPP1CA (Homo sapiens); test: Induction of PPI-mediated AKT dephosphorylation in human LnCaP cells assessed as increase in AKT dephosphorylation at 50 uM incubated for 8 hrs by Western blot analysis; format: cell-based
[16] = molecular target: T1, AKT1/PPP1CA (Homo sapiens); test: Induction of PPI (unknown origin)-mediated pAKT (T308) (unknown origin) dephosphorylation incubated for 1 hr by Western blot analysis; format: protein assay
[17] = test system: HCC827; test: Induction of dephosphorylation of EGFR Y1068 in human HCC827 cells at 10 uM incubated for 8 hrs by Western blot analysis; format: functional, cell-based
[18] = molecular target: EGFR/PPP1CA (Homo sapiens) (UniProt P00533+P62136); test: Induction of PPI-mediated EGFR dephosphorylation in human HCC827 cells transfected with human Halo/FLAG-tagged PP1CA assessed as increase in EGFR Y1068 dephosphorylation at 10 uM incubated for 8 hrs by Western blot analysis; format: cell-based
Chain of EGFR/PPP1CA (Homo sapiens) (P00533 whole entry, looked up): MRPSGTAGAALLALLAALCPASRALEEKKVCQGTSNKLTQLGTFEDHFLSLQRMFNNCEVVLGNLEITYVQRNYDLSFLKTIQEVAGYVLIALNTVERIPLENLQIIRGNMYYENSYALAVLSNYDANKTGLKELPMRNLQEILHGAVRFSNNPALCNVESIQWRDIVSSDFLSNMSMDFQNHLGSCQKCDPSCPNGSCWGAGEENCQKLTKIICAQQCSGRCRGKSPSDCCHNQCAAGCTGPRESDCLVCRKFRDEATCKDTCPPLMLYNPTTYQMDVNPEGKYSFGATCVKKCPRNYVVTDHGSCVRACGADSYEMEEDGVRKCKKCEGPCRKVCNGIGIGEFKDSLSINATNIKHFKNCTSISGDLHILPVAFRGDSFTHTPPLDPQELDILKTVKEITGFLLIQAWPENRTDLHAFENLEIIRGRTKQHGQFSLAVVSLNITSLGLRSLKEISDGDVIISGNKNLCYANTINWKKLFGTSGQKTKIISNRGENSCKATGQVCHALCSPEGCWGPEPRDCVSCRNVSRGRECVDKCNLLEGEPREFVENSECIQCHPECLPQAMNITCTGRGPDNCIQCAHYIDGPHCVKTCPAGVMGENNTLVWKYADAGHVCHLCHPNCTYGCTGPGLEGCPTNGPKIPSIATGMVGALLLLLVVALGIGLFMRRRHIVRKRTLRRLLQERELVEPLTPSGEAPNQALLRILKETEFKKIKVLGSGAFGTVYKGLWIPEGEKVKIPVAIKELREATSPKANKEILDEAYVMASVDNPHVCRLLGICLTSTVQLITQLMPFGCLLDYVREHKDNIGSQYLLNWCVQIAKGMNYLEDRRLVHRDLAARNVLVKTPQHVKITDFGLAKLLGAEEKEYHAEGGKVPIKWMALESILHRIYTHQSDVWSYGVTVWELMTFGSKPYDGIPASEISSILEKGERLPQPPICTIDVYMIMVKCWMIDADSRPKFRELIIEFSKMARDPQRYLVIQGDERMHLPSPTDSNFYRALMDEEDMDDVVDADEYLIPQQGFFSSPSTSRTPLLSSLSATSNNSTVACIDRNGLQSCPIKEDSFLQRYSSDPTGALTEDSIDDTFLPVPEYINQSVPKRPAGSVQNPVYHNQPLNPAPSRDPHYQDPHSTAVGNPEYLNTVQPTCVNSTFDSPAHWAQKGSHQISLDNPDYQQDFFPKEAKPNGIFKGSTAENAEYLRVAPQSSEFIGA
Chain of EGFR/PPP1CA (Homo sapiens) (P62136 whole entry, looked up): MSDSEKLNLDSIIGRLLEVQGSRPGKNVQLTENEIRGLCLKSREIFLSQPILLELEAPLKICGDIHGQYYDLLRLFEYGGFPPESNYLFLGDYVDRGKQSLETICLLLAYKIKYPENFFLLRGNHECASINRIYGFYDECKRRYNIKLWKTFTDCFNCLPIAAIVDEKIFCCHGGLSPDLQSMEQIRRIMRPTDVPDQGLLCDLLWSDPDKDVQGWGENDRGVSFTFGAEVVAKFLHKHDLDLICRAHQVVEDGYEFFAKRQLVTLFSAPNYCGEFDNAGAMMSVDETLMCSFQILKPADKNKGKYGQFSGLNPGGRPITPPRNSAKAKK

T1 sequence (P31749 whole entry, looked up): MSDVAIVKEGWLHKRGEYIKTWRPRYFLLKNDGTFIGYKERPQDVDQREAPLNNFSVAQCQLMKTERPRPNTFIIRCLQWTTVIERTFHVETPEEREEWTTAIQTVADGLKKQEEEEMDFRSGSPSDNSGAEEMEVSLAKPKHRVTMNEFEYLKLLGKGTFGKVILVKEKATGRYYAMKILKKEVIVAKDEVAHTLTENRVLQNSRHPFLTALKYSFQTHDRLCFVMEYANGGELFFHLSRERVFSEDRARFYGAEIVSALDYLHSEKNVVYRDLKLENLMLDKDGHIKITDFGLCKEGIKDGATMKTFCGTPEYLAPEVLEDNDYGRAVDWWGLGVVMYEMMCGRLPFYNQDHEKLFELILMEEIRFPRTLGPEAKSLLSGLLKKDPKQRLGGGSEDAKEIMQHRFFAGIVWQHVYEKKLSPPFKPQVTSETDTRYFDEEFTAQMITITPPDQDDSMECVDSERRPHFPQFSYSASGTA
T1 sequence (P62136 whole entry, looked up): as the sequence (P62136 whole entry, looked up) above

SMILES: CC(=O)N[C@@H](CSCC(=O)NCCOCCOCC(=O)Nc1ccc2[nH]c(=O)n(C3CCN(Cc4ccc(-c5nc6cc[nH]c(=O)c6cc5-c5ccccc5)cc4)CC3)c2c1)C(=O)N[C@@H](CCCNC(=N)N)C(=O)N[C@H](C(=O)N[C@@H](CO)C(=O)N[C@@H](C)C(=O)O)C(C)C
Activity [1]: Active | Activity [2]: inactive | Activity [3]: inactive | Activity [4]: inactive | Activity [5]: inactive | Activity [7]: inactive | Activity [8]: inactive | Activity [9]: inactive

SMILES: CC[C@H](C)[C@H](NC(=O)[C@@H](NC(=O)[C@H](CCC(=O)O)NC(=O)[C@H](C)NC(=O)[C@H](C)NC(=O)[C@H](CCC(=O)O)NC(=O)[C@H](C)NC(=O)[C@H](Cc1ccccc1)NC(=O)[C@@H](NC(=O)[C@@H](NC(=O)[C@H](CCCNC(=N)N)NC(=O)[C@H](C)NC(=O)[C@H](CC(N)=O)NC(=O)[C@H](CCCCN)NC(=O)[C@H](CCCNC(=N)N)NC(=O)[C@H](CCCCN)NC(=O)[C@H](CCCNC(=N)N)NC(=O)[C@H](CCCCN)NC(=O)[C@@H]1CCCN1C(=O)[C@H](CCCNC(=N)N)NC(=O)[C@H](CSCC(=O)NCCOCCOCC(=O)Nc1ccc2[nH]c(=O)n(C3CCN(Cc4ccc(-c5nc6cc[nH]c(=O)c6cc5-c5ccccc5)cc4)CC3)c2c1)NC(C)=O)C(C)C)[C@@H](C)O)[C@@H](C)CC)C(=O)O (Ac-C(X1)RPKRKRKNARVTFAEAAEII-OH)
Activity [13]: inactive | Activity [14]: Active

SMILES: CC(=O)Nc1ccc2[nH]c(=O)n(C3CCN(Cc4ccc(-c5nc6cc[nH]c(=O)c6cc5-c5ccccc5)cc4)CC3)c2c1
Activity [16]: Dose-dependent effect

Continued, in another order:

Activity [1]: Active | Activity [2]: Active | Activity [3]: Active | Activity [4]: Active | Activity [5]: Active | Activity [6]: inactive | Activity [7]: Active | Activity [8]: Active | Activity [9]: Active
SMILES: CC(=O)N[C@@H](CSCC(=O)NCCOCCOCC(=O)Nc1ccc2[nH]c(=O)n(C3CCN(Cc4ccc(-c5nc6cc[nH]c(=O)c6cc5-c5ccccc5)cc4)CC3)c2c1)C(=O)N[C@@H](CCCNC(=N)N)C(=O)N[C@H](C(=O)N[C@@H](CO)C(=O)N(C)[C@@H](Cc1ccccc1)C(=O)O)C(C)C

Activity [10]: Active | Activity [11]: Active | Activity [12]: Active
SMILES: O=C(CCC(=O)NCCOCCOCC(=O)Nc1ccc2[nH]c(=O)n(C3CCN(Cc4ccc(-c5nc6cc[nH]c(=O)c6cc5-c5ccccc5)cc4)CC3)c2c1)NCCOCCOCCCCCCCl

Activity [15]: Active | Activity [5]: inactive | Activity [9]: inactive
SMILES: CC(=O)N[C@@H](CSCC(=O)NCCOCCOCCOCC(=O)N(C)CCN(C[C@@H](C(=O)N1CCN(c2ncnc3c2[C@H](C)C[C@H]3O)CC1)c1ccc(Cl)cc1)C(C)C)C(=O)N[C@@H](CCCNC(=N)N)C(=O)N[C@H](C(=O)N[C@@H](CO)C(=O)N[C@@H](C)C(=O)O)C(C)C

Activity [18]: Active
SMILES: C=CC(=O)Nc1cc(Nc2nccc(-c3cn(C)c4ccccc34)n2)c(OC)cc1N(C)CCN1CCN(C(=O)COCCOCCOCCCCCCCl)CC1
Activity [17]: Active
